From ChEMBL document CHEMBL5512655, “Discovery of indolylacryloyl-derived oxacins as novel potential broad-spectrum antibacterial candidates” (Eur J Med Chem, 2024)
In brackets after ≈: the same amount, converted by molar mass.

Columns and labels:
Type in all cases: functional
Staphylococcus aureus [1] = assay: Antibacterial activity against Staphylococcus aureus ATCC 25923 assessed as inhibition of bacterial growth measured after 24 hrs incubation
Staphylococcus aureus [2] = assay: Antibacterial activity against Staphylococcus aureus ATCC 29213 assessed as inhibition of bacterial growth measured after 24 hrs incubation
Escherichia coli [3] = assay: Potency index, ratio of norfloxacin MIC to test compound MIC for antibacterial activity against Escherichia coli assessed as inhibition of bacterial growth measured after 24 hrs incubation
Staphylococcus aureus [4] = assay: Antibacterial activity against Staphylococcus aureus assessed as inhibition of bacterial growth measured after 24 hrs incubation
Escherichia coli [5] = assay: Antibacterial activity against Escherichia coli assessed as inhibition of bacterial growth measured after 24 hrs incubation
Enterococcus faecalis = assay: Antibacterial activity against Enterococcus faecalis assessed as inhibition of bacterial growth measured after 24 hrs incubation
Klebsiella pneumoniae = assay: Antibacterial activity against Klebsiella pneumonia assessed as inhibition of bacterial growth measured after 24 hrs incubation
Escherichia coli [6] = assay: Antibacterial activity against Escherichia coli ATCC 25922 assessed as inhibition of bacterial growth measured after 24 hrs incubation
Pseudomonas aeruginosa [7] = assay: Antibacterial activity against Pseudomonas aeruginosa assessed as inhibition of bacterial growth measured after 24 hrs incubation
Escherichia coli [8] = assay: Potency index, ratio of norfloxacin MIC to test compound MIC for antibacterial activity against Escherichia coli ATCC 25922 assessed as inhibition of bacterial growth measured after 24 hrs incubation
Acinetobacter baumannii = assay: Antibacterial activity against Acinetobacter baumannii assessed as inhibition of bacterial growth measured after 24 hrs incubation
Staphylococcus aureus [9] = assay: Antibacterial activity against methicillin-resistant Staphylococcus aureus N315 assessed as inhibition of bacterial growth measured after 24 hrs incubation
Pseudomonas aeruginosa [10] = assay: Antibacterial activity against Pseudomonas aeruginosa ATCC 27853 assessed as inhibition of bacterial growth measured after 24 hrs incubation

Row | Compound | MIC (Staphylococcus aureus [1]) [µg/mL] | MIC (Staphylococcus aureus [2]) [µg/mL] | Ratio (Escherichia coli [3]) | MIC (Staphylococcus aureus [4]) [µg/mL] | MIC (Escherichia coli [5]) [µg/mL] | MIC (Enterococcus faecalis) [µg/mL] | MIC (Klebsiella pneumoniae) [µg/mL] | MIC (Escherichia coli [6]) [µg/mL] | MIC (Pseudomonas aeruginosa [7]) [µg/mL] | Ratio (Escherichia coli [8]) | MIC (Acinetobacter baumannii) [µg/mL] | MIC (Staphylococcus aureus [9]) [µg/mL] | MIC (Pseudomonas aeruginosa [10]) [µg/mL]
1 | CCCCn1cc(C(=O)O)c(=O)c2cc(F)c(N3CCN(C(=O)/C(C#N)=C/c4cn(CC(=O)OCC)c5ccccc45)CC3)cc21 | 4 (≈ 6.37 µM) | 1 (≈ 1.59 µM) | 8 | 1 (≈ 1.59 µM) | 0.25 (≈ 0.398 µM) | 1 (≈ 1.59 µM) | 16 (≈ 25.5 µM) | 0.25 (≈ 0.398 µM) | 4 (≈ 6.37 µM) | 2 | 0.5 (≈ 0.797 µM) | 2 (≈ 3.19 µM) | 1 (≈ 1.59 µM)
2 | CCn1cc(C(=O)O)c(=O)c2cc(F)c(N3CCN(C(=O)/C(C#N)=C/c4cn(Cc5ccc(C)cc5)c5ccccc45)CC3)cc21 | 2 (≈ 3.24 µM) | 4 (≈ 6.48 µM) |  | 32 (≈ 51.8 µM) | 16 (≈ 25.9 µM) | 8 (≈ 13 µM) | 0.5 (≈ 0.809 µM) | 8 (≈ 13 µM) | 32 (≈ 51.8 µM) |  | 8 (≈ 13 µM) | 1 (≈ 1.62 µM) | 0.25 (≈ 0.405 µM)
3 | CCn1cc(C(=O)O)c(=O)c2cc(F)c(N3CCNCC3)cc21 [NORFLOXACIN] | 2 (≈ 6.26 µM) | 1 (≈ 3.13 µM) |  | 0.5 (≈ 1.57 µM) | 2 (≈ 6.26 µM) | 0.5 (≈ 1.57 µM) | 0.5 (≈ 1.57 µM) | 0.5 (≈ 1.57 µM) | 4 (≈ 12.5 µM) |  | 1 (≈ 3.13 µM) | 0.5 (≈ 1.57 µM) | 1 (≈ 3.13 µM)
4 | CCCCn1cc(/C=C(\C#N)C(=O)N2CCN(c3cc4c(cc3F)c(=O)c(C(=O)O)cn4CC)CC2)c2ccccc21 | 4 (≈ 7.02 µM) | 1 (≈ 1.76 µM) |  | 2 (≈ 3.51 µM) | 4 (≈ 7.02 µM) | 2 (≈ 3.51 µM) | 0.5 (≈ 0.878 µM) | 2 (≈ 3.51 µM) | 1 (≈ 1.76 µM) |  | 2 (≈ 3.51 µM) | 2 (≈ 3.51 µM) | 1 (≈ 1.76 µM)
5 | CCn1cc(C(=O)O)c(=O)c2cc(F)c(N3CCN(C(=O)/C(C#N)=C/c4cn(Cc5ccccc5F)c5ccccc45)CC3)cc21 | 16 (≈ 25.7 µM) | 32 (≈ 51.5 µM) |  | 32 (≈ 51.5 µM) | 0.5 (≈ 0.804 µM) | 16 (≈ 25.7 µM) | 1 (≈ 1.61 µM) | 0.25 (≈ 0.402 µM) | 1 (≈ 1.61 µM) |  | 0.5 (≈ 0.804 µM) | 0.25 (≈ 0.402 µM) | 0.5 (≈ 0.804 µM)
6 | CCn1cc(C(=O)O)c(=O)c2cc(F)c(N3CCN(C(=O)/C(C#N)=C/c4cn(CC#N)c5ccccc45)CC3)cc21 | 0.5 (≈ 0.905 µM) | 1 (≈ 1.81 µM) |  | 4 (≈ 7.24 µM) | 2 (≈ 3.62 µM) | 1 (≈ 1.81 µM) | 0.5 (≈ 0.905 µM) | 2 (≈ 3.62 µM) | 0.5 (≈ 0.905 µM) |  | 1 (≈ 1.81 µM) | 2 (≈ 3.62 µM) | 0.5 (≈ 0.905 µM)
7 | CCn1cc(C(=O)O)c(=O)c2cc(F)c(N3CCN(C(=O)/C(C#N)=C/c4c(C)[nH]c5ccccc45)CC3)cc21 | 4 (≈ 7.58 µM) | 0.25 (≈ 0.474 µM) |  | 1 (≈ 1.9 µM) | 1 (≈ 1.9 µM) | 1 (≈ 1.9 µM) | 2 (≈ 3.79 µM) | 0.25 (≈ 0.474 µM) | 1 (≈ 1.9 µM) |  | 1 (≈ 1.9 µM) | 2 (≈ 3.79 µM) | 0.5 (≈ 0.948 µM)
8 | CCn1cc(C(=O)O)c(=O)c2cc(F)c(N3CCN(C(=O)/C(C#N)=C/c4cn(CC5CC5)c5ccccc45)CC3)cc21 | 1 (≈ 1.76 µM) | 0.5 (≈ 0.881 µM) |  | 4 (≈ 7.05 µM) | 4 (≈ 7.05 µM) | 1 (≈ 1.76 µM) | 1 (≈ 1.76 µM) | 1 (≈ 1.76 µM) | 1 (≈ 1.76 µM) |  | 2 (≈ 3.52 µM) | 0.5 (≈ 0.881 µM) | 0.5 (≈ 0.881 µM)
9 | C=CCn1cc(/C=C(\C#N)C(=O)N2CCN(c3cc4c(cc3F)c(=O)c(C(=O)O)cn4CC)CC2)c2ccccc21 | 1 (≈ 1.81 µM) | 16 (≈ 28.9 µM) |  | 1 (≈ 1.81 µM) | 8 (≈ 14.5 µM) | 8 (≈ 14.5 µM) | 1 (≈ 1.81 µM) | 1 (≈ 1.81 µM) | 1 (≈ 1.81 µM) |  | 2 (≈ 3.61 µM) | 2 (≈ 3.61 µM) | 0.25 (≈ 0.452 µM)
